Each compound was assayed against MAGE-A11:PCF11 (Homo sapiens (Human), UniProt P43364) (assay: TR-FRET single point screening at 15 μM). Settings: single point TR-FRET screening at 15 μM against MAGE-A11:PCF11.
MAGE-A11:PCF11, sequence (P43364 218-429): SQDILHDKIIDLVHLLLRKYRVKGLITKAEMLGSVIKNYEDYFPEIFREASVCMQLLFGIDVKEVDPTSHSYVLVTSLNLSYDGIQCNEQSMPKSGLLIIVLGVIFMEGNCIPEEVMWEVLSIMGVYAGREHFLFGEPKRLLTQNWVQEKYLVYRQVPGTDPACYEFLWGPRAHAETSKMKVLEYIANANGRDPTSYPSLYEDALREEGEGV
Assay type: binding
Set-up: unit not given here
Procedure, shortened: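 Single-point screen at 15 μM (0.25% DMSO) measuring disruption of GST-MAGEA11 (5 nM) binding to FAM-PCF11_4 peptide (200 nM) detected by Tb-anti-GST (5 nM). Buffer 50 mM Tris pH 7.5, 20 mM MgCl2, 0.1 mg/ml BSA, 1 mM DTT; 90 min at ~25 °C; 520/490 nm ratio converted to % inhibition versus controls.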
Compound `CCCN(CCCNc1c2ccc(Cl)cc2nc2ccc(OC)cc12)Cc1cccs1` [SJ000520920] has a TR-FRET signal of −164.1.
`CCOC(=O)c1cnc2c(C)cc(C)cc2c1NCCN(C)C` [SJ000037396] showed a TR-FRET signal of 4.92.
For `Clc1ccc2c(NCCCCN(Cc3ccccc3)Cc3cccs3)ccnc2c1` [SJ000312686], the TR-FRET signal was 25.05.
`CCN(CC)CC(=O)Nc1c2c(nc3ccccc13)CCCC2` [SJ000019523] gave a TR-FRET signal of 2.741.
For `Cc1ccc(CN(CCCCNc2ccnc3cc(Cl)ccc23)Cc2ccccc2)s1` [SJ000312687], the TR-FRET signal was 20.71.
`O=S(=O)(c1ccc(Br)cc1)N1CCN(c2ccnc3cc(Cl)ccc23)CC1` [SJ000201754] showed a TR-FRET signal of −16.75.
With `O=[N+]([O-])c1ccc(CN2CCC(Nc3ccnc4cc(Cl)ccc34)CC2)cc1` [SJ000523096] the TR-FRET signal was −4.954.
For `CCOc1ccc2ncc(S(=O)(=O)c3ccc(C)cc3)c(N3CCN(CC)CC3)c2c1` [SJ000083964], the TR-FRET signal was −5.899.
In the case of `COc1ccc2nc3cc(Cl)ccc3c(NCCCNCc3ccc(C)o3)c2c1` [SJ000361089], the TR-FRET signal is reported as −229.
In the case of `CCN1CCN(c2c(S(=O)(=O)c3ccc(C)cc3)cnc3ccc(Cl)cc23)CC1` [SJ000083966], the TR-FRET signal is reported as −4.358.
In the case of `COc1ccc2ncc(S(=O)(=O)c3ccc(C)c(C)c3)c(N3CCN(c4ccccc4F)CC3)c2c1` [SJ000117078], the TR-FRET signal is reported as −8.289.
Compound `CCOc1ccc2ncc(S(=O)(=O)c3ccccc3)c(N3CCN(CC)CC3)c2c1` [SJ000083959] has a TR-FRET signal of 4.534.
`Clc1ccc2c(NCCCCN(Cc3ccccc3)Cc3cccc4ccccc34)ccnc2c1` [SJ000361204] was tested, and the TR-FRET signal was 26.49.
`CCCN(CCCCNc1ccnc2cc(Cl)ccc12)Cc1c[nH]c2ccccc12` [SJ000311204] gave a TR-FRET signal of −3.378.
`COc1ccc(-c2csc(N3CCN(c4cc(C)nc5ccccc45)CC3)n2)cc1OC` [SJ000114009] gave a TR-FRET signal of −53.43.
For `Cc1cc(NC(=O)CN2CCN(C)CC2)c2ccccc2n1` [SJ000111680], the TR-FRET signal was 4.647.
`COc1ccccc1N1CCN(c2c(S(=O)(=O)c3ccc(C)cc3)cnc3ccc(Cl)cc23)CC1` [SJ000117067] was tested, and the TR-FRET signal was −12.86.
`Clc1ccc2c(NC3CCN(Cc4cccc5ccccc45)CC3)ccnc2c1` [SJ000523099] gave a TR-FRET signal of −6.179.
With `O=S(=O)(c1ccccc1)c1cnc2ccc(Cl)cc2c1N1CCN(c2ccccc2F)CC1` [SJ000315176] the TR-FRET signal was −5.441.
Work on `CCC(C)CN(CCCCNc1ccnc2cc(Cl)ccc12)Cc1ccccc1` (stereo not shown) [SJ000361208] yielded a TR-FRET signal of 35.37.
With `C#CCOCC(O)CN1CCN(c2cc(C)nc3ccccc23)CC1` (stereo not shown) [SJ000227655] the TR-FRET signal was 6.55.
`Clc1ccc2c(NCCCCN(Cc3ccccc3)Cc3ccc4[nH]ccc4c3)ccnc2c1` [SJ000520434] was tested, and the TR-FRET signal was 69.44.
`COc1ccc2nc3cc(Cl)ccc3c(NCCCNCc3ccc4c(c3)OCO4)c2c1` [SJ000361085] showed a TR-FRET signal of −363.3.
With `CCc1ccc2ncc(S(=O)(=O)c3ccccc3)c(N3CCN(CC)CC3)c2c1` [SJ000083957] the TR-FRET signal was 3.238.
`Clc1ccc2c(NCCCCN(CCOCc3ccccc3)Cc3ccccc3)ccnc2c1` [SJ000357543] was tested, and the TR-FRET signal was −15.92.
`COc1ccc2ncc(S(=O)(=O)c3ccccc3)c(N3CCN(c4ccc(F)cc4)CC3)c2c1` [SJ000083978] showed a TR-FRET signal of −133.1.
In the case of `COc1ccc2nc3cc(Cl)ccc3c(NCCCNCc3cc4ccccc4o3)c2c1` [SJ000520997], the TR-FRET signal is reported as −146.7.
`O=S(=O)(c1ccccc1)c1cnc2ccc(F)cc2c1N1CCN(c2ccccc2)CC1` [SJ000083976] showed a TR-FRET signal of −31.1.
Work on `Cc1cc(C)c(CN(CCCCNc2ccnc3cc(Cl)ccc23)Cc2ccccc2)c(C)c1` [SJ000361193] yielded a TR-FRET signal of 26.03.
Work on `Clc1ccc2c(NCCCCN(CCCc3ccccc3)Cc3ccccc3)ccnc2c1` [SJ000522729] yielded a TR-FRET signal of 27.82.
Compound `COc1ccc(CN2CCC(Nc3ccnc4cc(Cl)ccc34)CC2)cc1` [SJ000523090] has a TR-FRET signal of 23.72.
`CCc1ccc(S(=O)(=O)c2cnc3ccccc3c2N2CCN(c3ccccc3F)CC2)cc1` [SJ000117079] gave a TR-FRET signal of −56.58.
Work on `Fc1ccccc1CN(CCCCNc1ccnc2cc(Cl)ccc12)Cc1ccccc1` [SJ000361198] yielded a TR-FRET signal of 20.78.
`CCN1CCN(c2c(S(=O)(=O)c3ccc(C)cc3)cnc3ccc(OC)cc23)CC1` [SJ000083963] gave a TR-FRET signal of −3.917.
`CCc1ccc2ncc(C(=O)c3ccccc3)c(N3CCN(CC)CC3)c2c1` [SJ000247281] gave a TR-FRET signal of −2.261.
Compound `Cc1cc(NC(=O)CN[C@H]2CCN(Cc3ccccc3)C2)c2ccccc2n1` [SJ000832405] has a TR-FRET signal of 4.364.
`COc1ccc2nc3cc(Cl)ccc3c(NCCCNCc3ccsc3)c2c1` [SJ000523026] showed a TR-FRET signal of −353.8.
`CCCN(CCCNc1c2ccc(Cl)cc2nc2ccc(OC)cc12)CCc1ccccc1` [SJ000520962] was tested, and the TR-FRET signal was −591.7.
`CC(=O)Nc1ccc(S(=O)(=O)N2CCN(c3ccnc4cc(Cl)ccc34)CC2)cc1` [SJ000193862] gave a TR-FRET signal of −16.19.
`Clc1ccc2c(NCCCCN(Cc3ccccc3)Cc3ccc[nH]3)ccnc2c1` [SJ000312692] gave a TR-FRET signal of 28.28.
Work on `COc1ccc2nc3cc(Cl)ccc3c(NCCCNCc3ccoc3)c2c1` [SJ000520916] yielded a TR-FRET signal of −299.4.
Compound `CCCN(CCCNc1c2ccc(Cl)cc2nc2ccc(OC)cc12)CCOCc1ccccc1` [SJ000522981] has a TR-FRET signal of −212.4.

Same assay, conditions: single point TR-FRET screening of quinoline compounds against MAGE-A11:PCF11; 15 μM
`CCCN(CCCNc1c2ccc(Cl)cc2nc2ccc(OC)cc12)Cc1cc(Br)cs1` [SJ000522989] gave a TR-FRET signal of −56.7.
With `COc1ccc2nc3cc(Cl)ccc3c(NCCCNCc3ccc[nH]3)c2c1` [SJ000361084] the TR-FRET signal was 0.9854.
Work on `FC(F)(F)c1ccc2c(NCCCNCc3ccco3)ccnc2c1` [SJ000361113] yielded a TR-FRET signal of 18.05.
For `CCCN(CCCNc1ccnc2cc(C(F)(F)F)ccc12)Cc1c(F)cccc1C(F)(F)F` [SJ000520481], the TR-FRET signal was 11.47.
`CCCCCCN(CCCNc1ccnc2cc(Cl)ccc12)Cc1ccccc1` [SJ000361189] showed a TR-FRET signal of −40.75.
With `CCCN(CCCNc1ccnc2cc(C(F)(F)F)ccc12)Cc1cnn(C)c1` [SJ000575182] the TR-FRET signal was 15.68.
`Fc1ccccc1CN(CCCNc1ccnc2cc(Cl)ccc12)Cc1ccccc1` [SJ000361175] showed a TR-FRET signal of 0.9627.
`Clc1ccc2c(NCCCN(CCCc3ccccc3)Cc3ccccc3)ccnc2c1` [SJ000361185] showed a TR-FRET signal of 6.074.
`CCCN(CCCNc1ccnc2cc(Cl)ccc12)Cc1ccc(OC)cc1` [SJ000522756] showed a TR-FRET signal of 19.14.
Compound `CCCN(CCCNc1c2ccc(Cl)cc2nc2ccc(OC)cc12)Cc1cncc(Br)c1` [SJ000522975] has a TR-FRET signal of −89.08.
Compound `Clc1ccc2c(NCCCNCc3ccccn3)ccnc2c1` [SJ000523050] has a TR-FRET signal of 4.744.
Compound `CCCN(CCCNc1ccnc2cc(Cl)ccc12)Cc1cn(C)c2ccccc12` [SJ000522995] has a TR-FRET signal of −1.532.
Compound `CCCN(CCCNc1ccnc2cc(Cl)ccc12)Cc1cccn1C` [SJ000523014] has a TR-FRET signal of 22.71.
Compound `CCCN(CCCNc1ccnc2cc(Cl)ccc12)Cc1ccccc1C(F)(F)F` [SJ000522745] has a TR-FRET signal of −38.03.
`CCCN(CCCNc1ccnc2cc(C(F)(F)F)ccc12)Cc1c(C)cc(C)cc1C` [SJ000361264] was tested, and the TR-FRET signal was 19.93.
`Fc1ccc(CN(CCCNc2ccnc3cc(Cl)ccc23)Cc2ccccc2)cc1F` [SJ000361174] was tested, and the TR-FRET signal was 27.55.
`c1coc(CNCCCNc2ccnc3cc(-c4ccc5c(c4)OCO5)ccc23)c1` [SJ000311290] was tested, and the TR-FRET signal was 30.79.
Compound `CC(C)Cc1ccc2c(NCCCNCc3ccco3)ccnc2c1` [SJ000311258] has a TR-FRET signal of 8.874.
`CCCCN(CCC)CCCNc1ccnc2cc(C(F)(F)F)ccc12` [SJ000520477] gave a TR-FRET signal of 23.58.
Compound `CCCN(CCCNc1c2ccc(Cl)cc2nc2ccc(OC)cc12)Cc1c(C)cc(C)cc1C` [SJ000520934] has a TR-FRET signal of −46.32.
Work on `Clc1ccc2c(NCCCN(Cc3ccccc3)Cc3ccc(Br)s3)ccnc2c1` [SJ000357461] yielded a TR-FRET signal of 27.5.
With `CCCN(CCCNc1c2ccc(Cl)cc2nc2ccc(OC)cc12)Cc1cc(C(F)(F)F)ccc1OC` [SJ000522985] the TR-FRET signal was −46.02.
With `CCCN(CCCNc1c2ccc(Cl)cc2nc2ccc(OC)cc12)Cc1cccc([N+](=O)[O-])c1` [SJ000520948] the TR-FRET signal was −10.74.
For `Fc1cccc(C(F)(F)F)c1CN(CCCNc1ccnc2cc(Cl)ccc12)Cc1ccccc1` [SJ000520467], the TR-FRET signal was 22.01.
Compound `Clc1ccc2c(NCCCN(Cc3ccccc3)CC3CC3)ccnc2c1` [SJ000357483] has a TR-FRET signal of 21.06.
`CCCN(CCCNc1ccnc2cc(C(F)(F)F)ccc12)Cc1ccc(OC)c(F)c1` [SJ000521013] gave a TR-FRET signal of 21.76.
`CCCN(CCCNc1ccnc2cc(Cl)ccc12)CCOCc1ccccc1` [SJ000357577] gave a TR-FRET signal of −13.18.
With `CCCN(CCCNc1c2ccc(Cl)cc2nc2ccc(OC)cc12)Cc1c(F)c(F)c(F)c(F)c1F` [SJ000522734] the TR-FRET signal was −2.258.
`CCC(CC)c1ccc2c(NCCCNCc3ccco3)ccnc2c1` [SJ000311266] was tested, and the TR-FRET signal was 24.56.
In the case of `CCC(C)CN(CCCNc1ccnc2cc(Cl)ccc12)Cc1ccccc1` (stereo not shown) [SJ000361186], the TR-FRET signal is reported as 29.6.
`CCCN(CCCNc1ccnc2cc(C(F)(F)F)ccc12)CC1CCCCC1` [SJ000361268] was tested, and the TR-FRET signal was 33.31.
Work on `CCCN(CCCNc1c2ccc(Cl)cc2nc2ccc(OC)cc12)Cc1ccccc1O` [SJ000520926] yielded a TR-FRET signal of −91.84.
With `CCCN(CCCNc1ccnc2cc(C(F)(F)F)ccc12)Cc1cccc2ccccc12` [SJ000523074] the TR-FRET signal was 14.32.
Compound `CCCCCCNCCCNc1ccnc2cc(C(F)(F)F)ccc12` [SJ000361124] has a TR-FRET signal of 31.61.
With `CCCN(CCCNc1ccnc2cc(C(F)(F)F)ccc12)Cc1ccc(Cl)c(C(F)(F)F)c1` [SJ000521015] the TR-FRET signal was 11.04.
Compound `CCCN(CCCNc1ccnc2cc(C(F)(F)F)ccc12)Cc1cncc(Br)c1` [SJ000521007] has a TR-FRET signal of 4.323.
`Clc1ccc2c(NCCCN(Cc3ccccc3)Cc3cccnc3Br)ccnc2c1` [SJ000520462] was tested, and the TR-FRET signal was 9.715.

— patent US20240246941A1, “SUBSTITUTED 4-(3-AMINOPROP-1-YL)AMINOQUINOLINE ANALOGS AS MODULATORS OF MELANOMA-ASSOCIATED ANTIGEN 11 UBIQUITIN LIGASE” (ST. JUDE CHILDREN'S RESEARCH HOSPITAL, INC., priority 2020, published 2024)
